These results are taken from patent US7538193B2, “NO-modified hemoglobins and uses therefor” (Duke University, priority 1995, dated 2009).

Data set [1] in a line: Decomposition and stability of SNO-Hb forms. The data set is classed as physicochemical. The protocol:
Hbs in PBS (0.5 mM EDTA, pH 7.4) were incubated in air (oxy) or in a tonometer previously evacuated of O2 (deoxy). SNO-Hb(FeII)O2 decomposition was determined by the method of Saville (Saville, B., Analyst 83:670-672 (1958)). Spontaneous decomposition of SNO-Hb(FeII) was followed spectrophotometrically by formation of Hb(FeII)NO. Transnitrosation reactions with glutathione were performed by addition of 100-fold excess glutathione over protein (50 μM), immediate processing of the reaction mixture under anaerobic conditions followed by rapid TCA precipitation, and analysis of RSNO in the supernatant. Rates of NO group transfer were too rapid to measure accurately by the standard methods used in this study.

In data set [2] the test system is rabbit thoracic aortic rings, endothelium removed. The data set can be described thus: Oxygen-dependent vessel ring bioassay (Examples 22, 23). The data set is classed as cell-based. The conditions noted are these: <1% O2 (~6 torr), T-structure.
The test system of a further data set is rabbit aortic ring. The data set can be described thus: Vessel ring bioassay of SNO-Hb preparations (Examples 4, 13). The class given is cell-based. The conditions noted are these: for vasoactivity in vascular ring bioassay: no added thiol (FIG. 4A). The protocol:
Details of the vessel ring bioassay have been published (Stamler, J. S., et al., Proc. Natl. Acad. Sci. USA 89:444-448 (1992)). SNO-Hb(FeII)O2 preparations were synthesized with 10-fold excess S-nitrosocysteine (CYSNO) over Hb(FeII)O2 protein (2% borate, 0.5 mM EDTA, ˜15 min incubation), after which desalting was performed across Sephadex G-25 columns. CYSNO was synthesized in 0.5 N HCl, 0.5 mM EDTA and then neutralized (1:1) in 1 M phosphate buffer containing 0.5 mM EDTA. […] The latter was synthesized by treatment of Hb(FeII)O2 with excess ferricyanide, followed by desalting across G-25 columns. SNO-Hb concentrations were verified spectroscopically and the S-nitrosothiol content was determined by the method of Saville (Stamler, J. S., et al., Proc. Natl. Acad. Sci USA 89:444-448 (1992)). The S—NO/tetramer stoichiometry for both SNO-Hb preparations was ˜2. Oxidation of the heme was undetectable by uv-spectrophotometric methods.
The aortic ring bioassay was performed as described in Example 4. The product of the reaction in which a ratio of 100:1 CYSNO/Hb tetramer was used, contains 2 SNOs as well as NO attached to the heme.

For the next data set, the system named is rat red blood cells. The data set can be described thus: S-nitrosation of intraerythrocytic Hb on incubation of red blood cells with RSNOs. The class given is cell-based. The conditions noted are these: oxygenated rat red blood cells. The protocol:
Incubation of rat erythrocytes with S-nitrosocysteine (equimolar to heme (5 mM); phosphate buffer pH 7.4, 25° C.) leads to rapid formation of intracellular SNO-Hb(FeII)O2. […] By 60 min, 3 of the 4 available SH groups of Hb were S-nitrosated (note that rat Hb contains 4 reactive SH groups). […] Spectrum A is that of SNO-Hb isolated from erythrocytes following G-25 chromatography. Treatment of A with dithionite results in reduction of the S—NO moiety, liberating free NO which is autocaptured by deoxy Hb, forming Hb(FeII)NO (note that dithionite simultaneously deoxygenates Hb) (spectrum C). […] The spectrum of Hb(FeII)NO containing 4 NO's per tetramer is shown for comparison (inset, spectrum B).
At shown intervals, red blood cells were pelleted rapidly by centrifugation, washed three times, lysed in deionized water at 4° C., and the cytosolic fraction subjected to rapid desalting across G-25 columns. Intracellular SNO-Hb was measured by the method of Saville (Gaston, B., et al., (1992); Stamler, J. S., et al., Proc. Natl. Acad. Sci. USA, 89:444-448 (1992)), and confirmed spectroscopically (inset of FIG. 3A) as described above.

For the next data set, the system named is Sprague-Dawley rat. The data set can be described thus: Mean arterial blood pressure in anesthetized rats after femoral vein bolus (Examples 5, 6). The class given is in vivo. The settings on record: 2-200 nmol/kg bolus. The text has this:
Rats were anesthetized by intraperitoneal injection of pentobarbital and the femoral arteries and veins accessed by local cut down. The artery was then cannulated and the blood pressure monitored continuously using a Viggo Spectramed pressure transducer attached to a Gould recorder. An IBM PC (DATA Q Codas) was used for data acquisition.

For the molecule “SNO-deoxyHb: S-nitroso-deoxyhemoglobin synthesized in an anaerobic environment”, the “stability of the isolated preparation” value in data set [1] (as synthesized in Example 27) is “highly unstable”. Moreover, the “rates of RSNO decomposition (and transfer)” value in data set [1] (deoxy conformation versus oxy state, PBS pH 7.4) was “much faster”. Also, in data set [2], the “effect on vessel tension” value is recorded as “modest effect on baseline tone”.

With `[N]=O` [NO, nitric oxide, reference compound], the “relaxant activity of free NO” value with rabbit aortic ring (in the presence of Hb(FeII)O2 or Hb(FeIII)) is on record as “devoid of relaxant activity”. As to `N[C@@H](CSN=O)C(=O)O` [S-nitrosocysteine], the “formation of intraerythrocytic SNO-Hb on treatment of red blood cells” value (“formation of intraerythrocytic SNO-Hb” below) with rat red blood cells is given as “very rapid formation of intracellular SNO-Hb(FeII)O2”.

On to “100:1 CYSNO/Hb product: Hb treated with 100:1 S-nitrosocysteine; contains 2 SNOs as well as NO attached to the heme (polynitrosated)”, for which, in the data set on rabbit aortic ring (Hb treated with S-nitrosocysteine 100:1 (FIG. 11)), the “potency in aortic ring bioassay” value is “much greater than that of SNO-Hb(FeIII)”. In the case of “Hb(FeIII): methemoglobin, heme iron oxidized to FeIII [reference compound]”, in the data set with rabbit aortic ring, the “vasoactivity in vascular ring bioassay” value is “contractile properties”. For the molecule “deoxyHb: deoxyhemoglobin, not S-nitrosated”, in data set [2], the “effect on vessel tension” value is “powerful contractile agent”. On to `N[C@@H](CCSN=O)C(=O)O` [S-nitrosohomocysteine], for which the “formation of intraerythrocytic SNO-Hb” value with rat red blood cells is “formed”. As for `N[C@@H](CSN=O)C(=O)NCC(=O)O` [S-nitrosocysteinylglycine], in the data set on rat red blood cells, the “formation of intraerythrocytic SNO-Hb” value is “formed”. On to “Hb(FeII)O2: oxyhemoglobin, cell-free, not S-nitrosated [reference compound]”, for which, in the data set with rabbit aortic ring (glutathione 100 ∥M in bioassay chambers (FIG. 4B)), the “effect of added glutathione on the dose-response” value was “did not significantly influence the response”. Further, the “vasoactivity in vascular ring bioassay” value with rabbit aortic ring was “Contractile effects”. Moreover, in the data set with Sprague-Dawley rat, the “time for elevations in blood pressure to reverse” value was in the range of 10 to 15 min.
